Where two headings read alike, the source gives them in different places.

The target of assay [1] is FGFR1 (Homo sapiens (Human), UniProt P11362). Description: FGFR Enzymatic Assay (FRET peptide phosphorylation), FGFR1.
The target of assay [2] is FGFR3 enzyme (Homo sapiens (Human), UniProt P22607). Description: FGFR Enzymatic Assay (FRET peptide phosphorylation), FGFR3. Particulars: for FGFR1/FGFR3 IC50 ratio / FGFR4/FGFR3 IC50 ratio: FGFR3 selectivity. The class given is biochemical. The protocol: (§1) The inhibitor potency of the exemplified compounds was measured in an enzyme assay that measures peptide phosphorylation using FRET measurements to detect product formation. Inhibitors were serially diluted in DMSO and a volume of 0.5 μL was transferred to the wells of a 384-well plate.
(§2) GraphPad prism3 was used to analyze the data.

For assay [3], the target named is FGFR4 (Homo sapiens (Human), UniProt P22455). The experiment in a line: FGFR Enzymatic Assay (FRET peptide phosphorylation), FGFR4. The format is biochemical. The protocol: as §1
(§3) The enzymes were purchased from Millipore or Invitrogen.
as §2

For assay [4], the target named is FGFR2 (Homo sapiens (Human), UniProt P21802). The experiment in a line: FGFR Enzymatic Assay (FRET peptide phosphorylation), FGFR2. The class given is biochemical. As for the experimental part:
as §1, §3, §2

Where [5] appears, read: FGFR1 IC50 (nM), pre-incubated for 4 hours.
Setting [6] is: pre-incubated for 4 hours, read-out: FGFR3 IC50.
The mark [7] stands for this setting: FGFR1 IC50 (nM), pre-incubated for 5 to 10 minutes.
Setting [8] is: pre-incubated for 5 to 10 minutes, read-out: FGFR3 IC50.
Where [9] appears, read: pre-incubated for 5 to 10 minutes.

FGFR4, sequence (P22455 22-802): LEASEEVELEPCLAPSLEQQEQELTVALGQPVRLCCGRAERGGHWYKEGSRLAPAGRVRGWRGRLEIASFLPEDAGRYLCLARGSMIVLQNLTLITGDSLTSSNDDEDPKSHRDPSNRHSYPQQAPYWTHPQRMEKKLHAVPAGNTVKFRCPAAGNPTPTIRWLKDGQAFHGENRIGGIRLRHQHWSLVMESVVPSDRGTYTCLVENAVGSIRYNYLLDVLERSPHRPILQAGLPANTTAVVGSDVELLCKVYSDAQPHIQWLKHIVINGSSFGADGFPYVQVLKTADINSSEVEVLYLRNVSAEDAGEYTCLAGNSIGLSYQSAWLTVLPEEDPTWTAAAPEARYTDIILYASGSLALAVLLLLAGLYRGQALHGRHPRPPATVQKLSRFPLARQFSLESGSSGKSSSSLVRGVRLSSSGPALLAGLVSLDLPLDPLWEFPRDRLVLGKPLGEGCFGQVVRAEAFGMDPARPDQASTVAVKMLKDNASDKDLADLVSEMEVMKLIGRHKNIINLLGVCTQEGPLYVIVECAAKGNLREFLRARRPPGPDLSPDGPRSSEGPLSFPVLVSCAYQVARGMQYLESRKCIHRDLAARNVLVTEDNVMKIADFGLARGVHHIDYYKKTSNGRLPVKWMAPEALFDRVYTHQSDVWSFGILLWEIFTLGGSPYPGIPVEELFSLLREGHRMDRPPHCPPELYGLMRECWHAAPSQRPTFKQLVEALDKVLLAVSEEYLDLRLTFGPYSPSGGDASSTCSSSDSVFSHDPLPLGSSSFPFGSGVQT
FGFR2, sequence (P21802 22-821): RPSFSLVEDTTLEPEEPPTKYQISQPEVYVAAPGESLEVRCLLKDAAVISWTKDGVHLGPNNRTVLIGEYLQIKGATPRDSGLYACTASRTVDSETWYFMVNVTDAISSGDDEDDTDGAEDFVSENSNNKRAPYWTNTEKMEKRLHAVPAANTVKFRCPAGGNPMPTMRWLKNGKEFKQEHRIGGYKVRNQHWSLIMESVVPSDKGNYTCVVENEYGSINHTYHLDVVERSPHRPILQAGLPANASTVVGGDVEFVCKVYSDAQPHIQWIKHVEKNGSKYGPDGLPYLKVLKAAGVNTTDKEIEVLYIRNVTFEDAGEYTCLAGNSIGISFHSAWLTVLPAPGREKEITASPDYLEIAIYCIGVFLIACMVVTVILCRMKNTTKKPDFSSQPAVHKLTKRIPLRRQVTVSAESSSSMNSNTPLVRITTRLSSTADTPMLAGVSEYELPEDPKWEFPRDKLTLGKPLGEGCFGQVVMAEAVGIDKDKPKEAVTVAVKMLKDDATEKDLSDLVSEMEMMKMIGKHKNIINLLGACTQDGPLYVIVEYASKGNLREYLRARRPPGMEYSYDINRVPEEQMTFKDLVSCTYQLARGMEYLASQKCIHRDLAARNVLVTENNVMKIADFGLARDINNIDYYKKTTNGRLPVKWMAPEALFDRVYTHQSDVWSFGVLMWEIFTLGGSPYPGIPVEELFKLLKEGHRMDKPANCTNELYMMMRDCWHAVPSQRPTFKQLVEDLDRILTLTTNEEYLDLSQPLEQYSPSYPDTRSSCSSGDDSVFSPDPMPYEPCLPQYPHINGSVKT
FGFR3 enzyme, sequence (P22607 23-806): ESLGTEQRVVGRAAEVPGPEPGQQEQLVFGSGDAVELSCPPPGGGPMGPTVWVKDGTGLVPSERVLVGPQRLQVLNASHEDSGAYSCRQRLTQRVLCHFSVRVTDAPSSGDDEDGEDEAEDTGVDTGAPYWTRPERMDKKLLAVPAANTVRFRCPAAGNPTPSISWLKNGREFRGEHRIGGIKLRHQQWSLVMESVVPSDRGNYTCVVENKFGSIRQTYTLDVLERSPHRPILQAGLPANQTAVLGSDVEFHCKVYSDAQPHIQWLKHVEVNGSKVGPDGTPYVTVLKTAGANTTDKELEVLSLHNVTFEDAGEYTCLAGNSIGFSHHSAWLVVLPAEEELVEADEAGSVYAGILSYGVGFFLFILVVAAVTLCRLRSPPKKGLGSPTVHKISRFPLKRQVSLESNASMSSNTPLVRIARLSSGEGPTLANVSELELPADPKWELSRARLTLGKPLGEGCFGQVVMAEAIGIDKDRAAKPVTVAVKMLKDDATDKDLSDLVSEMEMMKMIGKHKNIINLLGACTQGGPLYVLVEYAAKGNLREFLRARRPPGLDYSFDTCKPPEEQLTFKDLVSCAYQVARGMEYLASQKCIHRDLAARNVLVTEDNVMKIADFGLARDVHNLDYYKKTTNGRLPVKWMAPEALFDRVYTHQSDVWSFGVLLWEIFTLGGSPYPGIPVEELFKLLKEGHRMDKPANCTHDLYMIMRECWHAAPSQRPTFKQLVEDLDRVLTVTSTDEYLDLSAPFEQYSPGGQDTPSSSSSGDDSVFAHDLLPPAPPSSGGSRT
FGFR1, sequence (P11362 22-822): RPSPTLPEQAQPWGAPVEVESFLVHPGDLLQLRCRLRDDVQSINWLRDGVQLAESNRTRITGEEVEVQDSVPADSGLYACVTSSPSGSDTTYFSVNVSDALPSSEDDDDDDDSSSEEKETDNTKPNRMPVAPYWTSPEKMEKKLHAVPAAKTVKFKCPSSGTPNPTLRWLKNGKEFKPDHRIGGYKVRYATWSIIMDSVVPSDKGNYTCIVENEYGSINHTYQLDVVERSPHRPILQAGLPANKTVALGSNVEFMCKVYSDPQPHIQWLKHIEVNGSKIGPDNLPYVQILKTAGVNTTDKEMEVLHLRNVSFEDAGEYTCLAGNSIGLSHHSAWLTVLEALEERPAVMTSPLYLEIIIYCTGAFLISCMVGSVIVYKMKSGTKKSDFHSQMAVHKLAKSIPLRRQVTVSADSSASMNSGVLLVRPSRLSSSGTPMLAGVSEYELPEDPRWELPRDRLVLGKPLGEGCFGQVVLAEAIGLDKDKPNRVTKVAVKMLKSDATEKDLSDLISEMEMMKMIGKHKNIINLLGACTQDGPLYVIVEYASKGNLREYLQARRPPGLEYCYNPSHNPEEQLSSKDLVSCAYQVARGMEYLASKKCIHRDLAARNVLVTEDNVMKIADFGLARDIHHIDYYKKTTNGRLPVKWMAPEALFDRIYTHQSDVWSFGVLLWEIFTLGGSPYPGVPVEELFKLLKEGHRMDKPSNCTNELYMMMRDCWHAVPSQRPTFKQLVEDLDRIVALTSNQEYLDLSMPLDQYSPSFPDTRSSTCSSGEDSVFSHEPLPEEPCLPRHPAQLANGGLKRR

As for `COC(=O)N1CCC(N2C(=O)N(c3c(F)c(OC)cc(OC)c3F)Cc3cnc(-c4cn(C)nc4C)cc32)CC1` [Example 122, Methyl 4-(3-(2,6-difluoro-3,5-dimethoxyphenyl)-7-(1,3-dimethyl-1H-pyrazol-4-yl)-2-oxo-3,4-dihydropyrido[4,3-d]pyrimidin-1(2H)-yl)piperidine-1-carboxylate], the IC50 was in the range of 30 to 200 nM in assay [1], 10 to 30 nM in assay [2], 30 to 200 nM in assay [3] (pre-incubated for 4 hours) and 10 to 30 nM in assay [4] (pre-incubated for 4 hours). For the same compound, in assay [2] (pre-incubated for 4 hours), the “FGFR1/FGFR3 IC50 ratio” value is greater than 5. Moreover, in assay [2] (pre-incubated for 4 hours), the “FGFR4/FGFR3 IC50 ratio” value was greater than 5.
Regarding `CCN1C(=O)N(c2c(F)c(OC)cc(OC)c2F)Cc2cnc(-c3cn(CCN4CCOCC4)nc3C)cc21` [Example 49, 3-(2,6-difluoro-3,5-dimethoxyphenyl)-1-ethyl-7-(3-methyl-1-(2-morpholinoethyl)-1H-pyrazol-4-yl)-3,4-dihydropyrido[4,3-d]pyrimidin-2(1H)-one], the IC50 was 30 to 200 nM in assay [1] (setting [5]), less than 10 nM in assay [2] (setting [6]), 30 to 200 nM in assay [3] (pre-incubated for 4 hours) and less than 10 nM in assay [4] (pre-incubated for 4 hours). For the same compound, the “FGFR1/FGFR3 IC50 ratio” value in assay [2] (pre-incubated for 4 hours) is reported as greater than 5. In assay [2] (pre-incubated for 4 hours), the “FGFR4/FGFR3 IC50 ratio” value was greater than 1.
In the case of `COc1cc(OC)c(F)c(N2Cc3cnc(-c4ccc(C5(C#N)CCC5)nc4)cc3N(c3cccnc3)C2=O)c1F` [Example 138, 1-(5-(3-(2,6-difluoro-3,5-dimethoxyphenyl)-2-oxo-1-(pyridin-3-yl)-1,2,3,4-tetrahydropyrido[4,3-d]pyrimidin-7-yl)pyridin-2-yl)cyclobutanecarbonitrile], the IC50 in assay [1] (setting [7]) is 30 to 200 nM; in assay [2] (setting [8]), 10 to 30 nM; in assay [3] (setting [9]), 30 to 200 nM; in assay [4] (setting [9]) it was 10 to 30 nM.
As for `CCN1C(=O)N(c2cc(OC)cc(C(=O)NC)c2F)Cc2cnc(-c3ccc(C4(C#N)CCC4)nc3)cc21` [Example 28, 3-(7-(6-(1-cyanocyclobutyl)pyridin-3-yl)-1-ethyl-2-oxo-1,2-dihydropyrido[4,3-d]pyrimidin-3(4H)-yl)-2-fluoro-5-methoxy-N-methylbenzamide], the IC50 in assay [1] (read-out: FGFR1 IC50, pre-incubated for 4 hours) was greater than 200 nM; in assay [2] (setting [6]), 30 to 200 nM; in assay [3] (pre-incubated for 4 hours) it was greater than 200 nM; in assay [4] (pre-incubated for 4 hours), 30 to 200 nM.
`COc1cc(OC)c(F)c(N2Cc3cnc(-c4cn(C)nc4C)cc3N(Cc3cc(C(C)C)on3)C2=O)c1F` [Example 93, 3-(2,6-difluoro-3,5-dimethoxyphenyl)-7-(1,3-dimethyl-1H-pyrazol-4-yl)-1-((5-isopropylisoxazol-3-yl)methyl)-3,4-dihydropyrido[4,3-d]pyrimidin-2(1H)-one]: the IC50 is 30 to 200 nM in assay [1] (setting [5]), less than 10 nM in assay [2] (setting [6]), 30 to 200 nM in assay [3] (pre-incubated for 4 hours) and less than 10 nM in assay [4] (pre-incubated for 4 hours). The “FGFR1/FGFR3 IC50 ratio” value in assay [2] (pre-incubated for 4 hours) was greater than 5. In addition, the “FGFR4/FGFR3 IC50 ratio” value in assay [2] (pre-incubated for 4 hours) is reported as greater than 5.
On to `COc1cc(OC)c(F)c(N2Cc3cnc(-c4cn(C)nc4C)cc3N(Cc3cnn(CC4CC4)c3)C2=O)c1F` [Example 126, 1-((1-(cyclopropylmethyl)-1H-pyrazol-4-yl)methyl)-3-(2,6-difluoro-3,5-dimethoxyphenyl)-7-(1,3-dimethyl-1H-pyrazol-4-yl)-3,4-dihydropyrido[4,3-d]pyrimidin-2(1H)-one], for which the IC50 in assay [1] (setting [7]) was 10 to 30 nM; in assay [2] (setting [8]), less than 10 nM; in assay [3] (setting [9]) it was 30 to 200 nM; in assay [4] (setting [9]), less than 10 nM.
`COc1cc(OC)c(F)c(N2Cc3cnc(-c4cn(C)nc4C)cc3N(C3(C#N)CC3)C2=O)c1F` [Example 91, 1-(3-(2,6-difluoro-3,5-dimethoxyphenyl)-7-(1,3-dimethyl-1H-pyrazol-4-yl)-2-oxo-3,4-dihydropyrido[4,3-d]pyrimidin-1(2H)-yl)cyclopropanecarbonitrile]: the half-inhibitory concentration (IC50) in assay [1] (setting [5]) is 30 to 200 nM; in assay [2] (setting [6]) it was less than 10 nM; in assay [3] (pre-incubated for 4 hours), 30 to 200 nM; in assay [4] (pre-incubated for 4 hours), less than 10 nM. For the same compound, the “FGFR1/FGFR3 IC50 ratio” value in assay [2] (pre-incubated for 4 hours) is greater than 5. In addition, the “FGFR4/FGFR3 IC50 ratio” value in assay [2] (pre-incubated for 4 hours) is given as greater than 5.

For the origin of these results see patent US9708318B2, “Bicyclic heterocycles as FGFR4 inhibitors” (Incyte Corporation, priority 2015, dated 2017).
